Molecular target: T1, proMMP9 activation to active MMP9 in HFL-1 cells (Homo sapiens, UniProt P14780)
T1 construct: endogenous in cells; host or cells: HFL-1 (ATCC CCL-153), TNFα plus 30 nM human neutrophil elastase
Test: Activation of proMMP9 by human fetal lung fibroblast (HFL-1) cultures (Western blot)
Type: cell-based
Settings: 3.3 μM, 72 hrs, mAb-L51/82
Method: Example 2 was assessed additionally for ability to block the maturation of proMMP9 to active MMP9 in cultures of human fetal lung fibroblasts (HFL-1, American Type Culture Collection #CCL-153). Unlike rat synoviocytes, HFL-1 cells were unable to process proMMP9 to the active form without addition of neutrophil elastase. […] Rather, the function of elastase in this assay may be to inactivate tissue inhibitors of matrix metalloproteinases (TIMPs) that repress endogenous pathways of MMP9 activation (Skold, Liu et al. 1999).
HLF-1 were maintained in monolayer culture in DMEM with 10% FCS and were used between passage numbers 5-15. HLF-1 were embedded in collagen gels as described for rat SCW synoviocytes (vida supra). […] The plates were cultured an additional 72 hrs, at which time MMP9 secreted into the conditioned media was bound to gelatin-sepharose and evaluated by Western blot analysis as described for the rat synoviocyte cultures (vida supra). mAb-51/82 detected three forms of MMP9 in HFL-1 cultures.
A second experiment was performed to determine if the 80 kD form was mature active MMP9 and to determine the potency of Example 2 as an inhibitor of MMP9 maturation in this assay. […] In the absence of Example 2, pAb-1246 readily detected MMP9 with an electrophoretic mobility of approximately 80 kD. […]

T1 sequence (P14780 20-707 limits assumed): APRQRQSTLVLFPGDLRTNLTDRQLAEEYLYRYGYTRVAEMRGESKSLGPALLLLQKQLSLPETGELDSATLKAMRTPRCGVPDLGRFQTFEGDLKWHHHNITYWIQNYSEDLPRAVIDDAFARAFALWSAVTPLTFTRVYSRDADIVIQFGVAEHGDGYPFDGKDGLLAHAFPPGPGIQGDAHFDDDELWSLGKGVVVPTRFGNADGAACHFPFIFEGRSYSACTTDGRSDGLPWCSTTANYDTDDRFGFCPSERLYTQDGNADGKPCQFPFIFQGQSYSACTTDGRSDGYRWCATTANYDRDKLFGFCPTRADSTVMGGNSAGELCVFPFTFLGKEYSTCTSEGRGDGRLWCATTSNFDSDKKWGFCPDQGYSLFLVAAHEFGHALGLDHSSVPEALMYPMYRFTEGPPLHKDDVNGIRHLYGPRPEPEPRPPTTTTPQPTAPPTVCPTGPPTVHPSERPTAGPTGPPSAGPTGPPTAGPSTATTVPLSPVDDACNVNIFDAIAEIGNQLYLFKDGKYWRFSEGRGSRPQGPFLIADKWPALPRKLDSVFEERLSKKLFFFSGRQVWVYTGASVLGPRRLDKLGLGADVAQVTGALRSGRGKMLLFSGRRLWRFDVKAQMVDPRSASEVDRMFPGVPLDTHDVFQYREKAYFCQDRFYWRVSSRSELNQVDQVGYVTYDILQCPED

For Cc1nc(C)c(-c2csc(Nc3cc(S(N)(=O)=O)ccc3OC(C)C)n2)s1 [Example 2, 3-(2′,4′-Dimethyl-[4,5′]bithiazolyl-2-ylamino)-4-isopropoxy-benzenesulfonamide.HBr], the “Signal Total” value was 91346 INT * mm^2.
